From ChEMBL document CHEMBL1123421, “Interaction of monoamine oxidase B with analogues of 1-methyl-4-phenyl-1,2,3,6-tetrahydropyridine derived from prodine-type analgesics” (J Med Chem, 1986) come the findings set out here.

SMILES strings stand for the structures.

For assay [1], the species on record is Homo sapiens. Kind of assay: Compound was tested for inactivation of monoclonal antibody complex (MAO B - MAO B 1C2) from human autopsy liver.
The species named for assay [2] is Homo sapiens. The experiment in a line: Compound was tested for inhibition of monoclonal antibody complex (MAO B - MAO B 1C2) from human autopsy liver expressed as specific activity.
Assay [3] is filed under the species Homo sapiens. The experiment in a line: Compound was tested for inactivation of monoclonal antibody complex Monoamine oxidase B from human autopsy liver.

Regarding `CC1CN(C)CC=C1c1ccccc1` (stereo not drawn), in the assay filed under Homo sapiens [1], the k' was 0 min⁻¹. Also, the Specific activity (nM min-1 mg-1) in the assay listed under Homo sapiens [2] amounted to 11.4.

In the assay filed under Homo sapiens [1], `CC1=C(c2ccccc2)CCN(C)C1` came in with a k' of 0 min⁻¹. The Specific activity (nM min-1 mg-1) in the assay filed under Homo sapiens [2] stood at 5.3.

Consider `C1=C(c2ccccc2)CCN(CCc2ccccc2)C1`, for which the k' in the assay listed under Homo sapiens [3] is 0 min⁻¹. Further, in the assay listed under Homo sapiens [2], the Specific activity (nM min-1 mg-1) turned out to be 0.

Take `CN1CC=C(c2ccccc2)CC1`: the k' in the assay listed under Homo sapiens [1] was 0.0264 min⁻¹. In the assay listed under Homo sapiens [2], the Specific activity (nM min-1 mg-1) turned out to be 85.2.
